Target: Xanthine dehydrogenase/oxidase (Homo sapiens, UniProt P47989)
Assay: Inhibition of xanthine oxidase by spectrophotometry

Xanthine dehydrogenase/oxidase, sequence (P47989 whole entry): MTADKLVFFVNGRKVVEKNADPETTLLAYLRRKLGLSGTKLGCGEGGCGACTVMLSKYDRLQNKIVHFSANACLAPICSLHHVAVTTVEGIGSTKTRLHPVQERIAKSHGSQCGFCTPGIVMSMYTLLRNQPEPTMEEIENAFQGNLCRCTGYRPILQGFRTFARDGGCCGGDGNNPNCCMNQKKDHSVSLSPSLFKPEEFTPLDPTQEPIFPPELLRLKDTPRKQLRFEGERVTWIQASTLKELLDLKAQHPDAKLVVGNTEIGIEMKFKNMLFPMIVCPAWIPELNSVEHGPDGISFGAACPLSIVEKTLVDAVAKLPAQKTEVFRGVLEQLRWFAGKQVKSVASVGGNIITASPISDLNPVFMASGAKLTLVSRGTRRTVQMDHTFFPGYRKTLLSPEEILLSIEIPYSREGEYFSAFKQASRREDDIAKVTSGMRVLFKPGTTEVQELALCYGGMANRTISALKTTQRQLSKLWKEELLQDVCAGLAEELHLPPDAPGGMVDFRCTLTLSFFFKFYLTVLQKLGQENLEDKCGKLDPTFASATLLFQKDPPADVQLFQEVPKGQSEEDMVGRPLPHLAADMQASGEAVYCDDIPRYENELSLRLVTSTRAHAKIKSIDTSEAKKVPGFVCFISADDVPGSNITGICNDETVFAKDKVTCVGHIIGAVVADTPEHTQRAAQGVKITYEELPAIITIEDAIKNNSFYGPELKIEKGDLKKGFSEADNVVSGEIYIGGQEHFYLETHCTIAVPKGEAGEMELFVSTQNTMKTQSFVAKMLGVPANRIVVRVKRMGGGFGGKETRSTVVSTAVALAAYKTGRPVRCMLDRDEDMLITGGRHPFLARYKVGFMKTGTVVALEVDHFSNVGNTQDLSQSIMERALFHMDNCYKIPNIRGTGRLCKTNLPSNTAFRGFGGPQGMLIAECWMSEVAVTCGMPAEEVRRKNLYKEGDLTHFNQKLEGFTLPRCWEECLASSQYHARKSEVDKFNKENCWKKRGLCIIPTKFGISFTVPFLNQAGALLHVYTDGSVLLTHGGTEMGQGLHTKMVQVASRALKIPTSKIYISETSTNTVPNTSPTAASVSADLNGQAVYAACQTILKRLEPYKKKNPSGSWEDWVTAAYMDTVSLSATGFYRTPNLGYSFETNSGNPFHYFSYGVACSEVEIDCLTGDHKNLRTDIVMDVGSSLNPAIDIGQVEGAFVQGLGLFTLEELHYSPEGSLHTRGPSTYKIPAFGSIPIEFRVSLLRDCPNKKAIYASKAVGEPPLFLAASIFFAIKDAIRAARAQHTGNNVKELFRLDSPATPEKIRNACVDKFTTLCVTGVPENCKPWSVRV

| SMILES | IC50 [µM] |
| --- | --- |
| COc1c(O)cc2oc(-c3ccc(O)c(O)c3)c(OC)c(=O)c2c1O [AXILLARIN] | 36 |
| COc1ccc(-c2oc3cc(O)c(OC)c(O)c3c(=O)c2OC)cc1 [SANTIN] | 36.5 |
